Laboratory results taken from patent publication US6518243B1, “Desleucyl glycopeptide antibiotics and methods of making same” (Trustees of Princeton University, priority 1999, dated 2003).

How the values were obtained:
[1] = system: E. faceium (ATCC 49624); assay: Zone of inhibition screen, 96 well agar array format;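 note: score 3 means fourfold and score 4 sixteenfold the reference zone size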; format: cell-based, E. faecium
Description: The antibacterial activity of each of the compounds against the bacterial strains E. faceium (ATCC 49624), S. epidermidis (ATCC 12228), S. aureus (ATCC 29213), E. faecalis (CL 4877) and E. faecalis (ATCC 292121) was tested. Each of the compounds was screened in a 96 will agar array format.

[2] = system: E. faecalis (CL 4877); assay: as above; format: cell-based; parameters: scale not given here
How it was run: (§1)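 Read-out is antibacterial activity on agar laid out as a 96-well array; every compound went through all strains of the panel.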

[3] = system: S. aureus (ATCC 29213); assay: as above; format: cell-based; parameters: scale not given here; conditions: zone of inhibition relative to 1 mg/ml stock solution of p-chlorobiphenylvancomycin
How it was run: as §1

[4] = system: S. epidermidis (ATCC 12228); assay: as above; format: cell-based; parameters: scale not given here; conditions: zone of inhibition relative to 1 mg/ml stock solution of p-chlorobiphenylvancomycin
How it was run: as §1

[5] = system: E. faecium ATCC 49624; assay: MIC determination in BHI media, OD600; format: cell-based; conditions: BHI + 0.1% casamino acids, 18 hours at 37° C., ≧90% OD600 inhibition
Description: (§2) Logarithmically growing cells were diluted to approximately 5×10^5 CFU/ml and subjected to test compounds solubilized and serially diluted in DMSO. […] After 18 hours at 37° C., the OD600 was determined by reading the ninety-six well microtiter plates on a microplate reader. For a given concentration, an MIC determination was made if: […]

[6] = system: S aureus ATCC 29213; assay: MIC determination in BHI media, OD600; format: cell-based; conditions: BHI + 0.1% casamino acids, 18 hours at 37° C., ≧90% OD600 inhibition
Description: as §2

[7] = system: S. Aureus ATCC 33591; assay: MIC determination in BHI media, OD600; format: cell-based; conditions: BHI + 0.1% casamino acids, 18 hours at 37° C., ≧90% OD600 inhibition
Description: as §2

[8] = zone of inhibition relative to 1 mg/ml stock solution of p-chlorobiphenylvancomycin
[9] = zone of inhibition relative to 1 mg/ml p-chlorobiphenylvancomycin

Row | SMILES | zone score, E. faecium ATCC 49624 [1, 8] | zone score, E. faecalis CL 4877 [2, 8] | zone score, S. aureus ATCC 29213 [3] | MIC E. faecium ATCC 49624 [5] | MIC S. aureus ATCC 29213 [6] | MIC S. aureus ATCC 33591 [7] | also measured
1 | C[C@H]1O[C@H](O[C@H]2[C@H](Oc3c4cc5cc3Oc3ccc(cc3Cl)[C@@H](O)[C@@H](NC(=O)[C@@H](N)CCCNC(N)=O)C(=O)N[C@@H](CC(N)=O)C(=O)N[C@H]5C(=O)N[C@H]3C(=O)N[C@H](C(=O)N[C@@H](C(=O)O)c5cc(O)cc(O)c5-c5cc3ccc5O)[C@H](O)c3ccc(c(Cl)c3)O4)O[C@H](CO)[C@@H](O)[C@@H]2O)C[C@@](C)(NCc2ccc(-c3ccc(Cl)cc3)cc2)[C@H]1O [Compound 5] | 2 | 2 | – | – | – | – | –
2 | C[C@H]1O[C@H](O[C@H]2[C@H](Oc3c4cc5cc3Oc3ccc(cc3Cl)[C@@H](O)[C@@H](NC(=O)[C@@H](N)Cc3c[nH]c6ccccc36)C(=O)N[C@@H](CC(N)=O)C(=O)N[C@H]5C(=O)N[C@H]3C(=O)N[C@H](C(=O)N[C@@H](C(=O)O)c5cc(O)cc(O)c5-c5cc3ccc5O)[C@H](O)c3ccc(c(Cl)c3)O4)O[C@H](CO)[C@@H](O)[C@@H]2O)C[C@@](C)(NCc2ccc(-c3ccc(Cl)cc3)cc2)[C@H]1O [Compound 12] | – | – | 2 | 0.39 µg/mL | 0.78 µg/mL | 0.78 µg/mL | zone score, S. epidermidis ATCC 12228 [4]: 2
3 | CC(O)C(N)C(=O)NC1C(=O)NC(CC(N)=O)C(=O)NC2C(=O)NC3C(=O)NC(C(=O)NC(C(=O)O)c4cc(O)cc(O)c4-c4cc3ccc4O)C(O)c3ccc(c(Cl)c3)Oc3cc2cc(c3OC2OC(CO)C(O)C(O)C2OC2CC(C)(NCc3ccc(-c4ccc(Cl)cc4)cc3)C(O)C(C)O2)Oc2ccc(cc2Cl)C1O (stereo not drawn) [Compound 43] | 2 | 2 | – | – | – | – | –
4 | CC1OC(OC2C(Oc3c4cc5cc3Oc3ccc(cc3Cl)C(O)C3NC(=O)C(NC(=O)C5NC(=O)C(CC(N)=O)NC(=O)C(NC(=O)CCN)C(O)c5ccc(c(Cl)c5)O4)c4ccc(O)c(c4)-c4c(O)cc(O)cc4C(C(=O)O)NC3=O)OC(CO)C(O)C2O)CC(C)(NCc2ccc(-c3ccc(Cl)cc3)cc2)C1O (stereo not drawn) [Compound 47] | 2 | 2 | – | – | – | – | –
5 | CSCC(N)C(=O)NC1C(=O)NC(CC(N)=O)C(=O)NC2C(=O)NC3C(=O)NC(C(=O)NC(C(=O)O)c4cc(O)cc(O)c4-c4cc3ccc4O)C(O)c3ccc(c(Cl)c3)Oc3cc2cc(c3OC2OC(CO)C(O)C(O)C2OC2CC(C)(NCc3ccc(-c4ccc(Cl)cc4)cc3)C(O)C(C)O2)Oc2ccc(cc2Cl)C1O (stereo not drawn) [Compound 50] | 2 | 2 | – | – | – | – | –
6 | CC1OC(OC2C(Oc3c4cc5cc3Oc3ccc(cc3Cl)C(O)C3NC(=O)C(NC(=O)C5NC(=O)C(CC(N)=O)NC(=O)C(NC(=O)CNC(=O)CNC(=O)CN)C(O)c5ccc(c(Cl)c5)O4)c4ccc(O)c(c4)-c4c(O)cc(O)cc4C(C(=O)O)NC3=O)OC(CO)C(O)C2O)CC(C)(NCc2ccc(-c3ccc(Cl)cc3)cc2)C1O (stereo not drawn) [Compound 67] | – | – | 2 | 0.78 µg/mL | 0.78 µg/mL | 0.78 µg/mL | zone score, S. epidermidis ATCC 12228 [4]: 2
7 | COCCOCC(=O)NC1C(=O)NC(CC(N)=O)C(=O)NC2C(=O)NC3C(=O)NC(C(=O)NC(C(=O)O)c4cc(O)cc(O)c4-c4cc3ccc4O)C(O)c3ccc(c(Cl)c3)Oc3cc2cc(c3OC2OC(CO)C(O)C(O)C2OC2CC(C)(NCc3ccc(-c4ccc(Cl)cc4)cc3)C(O)C(C)O2)Oc2ccc(cc2Cl)C1O (stereo not drawn) [Compound 100] | – | – | 2 | 0.78 µg/mL | 0.25 µg/mL | 0.78 µg/mL | –
8 | CC1OC(OC2C(Oc3c4cc5cc3Oc3ccc(cc3Cl)C(O)C3NC(=O)C(NC(=O)C5NC(=O)C(CC(N)=O)NC(=O)C(NC(=O)CC(O)C[N+](C)(C)C)C(O)c5ccc(c(Cl)c5)O4)c4ccc(O)c(c4)-c4c(O)cc(O)cc4C(C(=O)O)NC3=O)OC(CO)C(O)C2O)CC(C)(NCc2ccc(-c3ccc(Cl)cc3)cc2)C1O (stereo not drawn) [Compound 149] | 2 | 2 | – | – | – | – | –
9 | CC1OC(OC2C(Oc3c4cc5cc3Oc3ccc(cc3Cl)C(O)C3NC(=O)C(NC(=O)C5NC(=O)C(CC(N)=O)NC(=O)C(NC(=O)C(N)CCCNC(=N)N)C(O)c5ccc(c(Cl)c5)O4)c4ccc(O)c(c4)-c4c(O)cc(O)cc4C(C(=O)O)NC3=O)OC(CO)C(O)C2O)CC(C)(NCc2ccc(-c3ccc(Cl)cc3)cc2)C1O (stereo not drawn) [Compound 217] | – | – | – | – | – | – | zone score, E. faecium ATCC 49624 [1, 9]: 2; zone score, E. faecalis CL 4877 [2, 9]: 2
10 | CC(N)C(=O)NC1C(=O)NC(CC(N)=O)C(=O)NC2C(=O)NC3C(=O)NC(C(=O)NC(C(=O)O)c4cc(O)cc(O)c4-c4cc3ccc4O)C(O)c3ccc(c(Cl)c3)Oc3cc2cc(c3OC2OC(CO)C(O)C(O)C2OC2CC(C)(NCc3ccc(-c4ccc(Cl)cc4)cc3)C(O)C(C)O2)Oc2ccc(cc2Cl)C1O (stereo not drawn) [Compound 220] | – | – | – | – | – | – | zone score, E. faecium ATCC 49624 [1, 9]: 2
